Counter-ions that a name gives are not always drawn.
Legend:
PAF-induced hypotension = experiment: Inhibition of PAF-induced hypotension (rat, i.v.); type: in vivo, rats of the Wistar-Imamichi strain; conditions: 50% inhibitory dose, intravenous, cumulative doses, 10 ng/kg i.v. 1-C16:0 PAF, Inactin anesthesia, rats, read-out: Inhibition of Hypotension ID50
Method: Inhibition of PAF-induced hypotension
The test animals employed were rats of the Wistar-Imamichi strain, each weighing between 350 and 450 g.
Under Inactin anesthesia (90 mg/kg administered intraperitoneally) the left femoral artery and vein of each test animal were cannulated to enable the arterial blood pressure to be monitored continuously and for drug administration, respectively. At intervals of about 5 minutes, each animal was given by intravenous injection 10 ng/kg of synthetic 1-C16:0 PAF until a steady hypotensive response was achieved. At this time, the drug to be tested was administered by intravenous injection in doses increasing cumulatively by a factor of 3. Within 1 minute of this injection, a further 10 ng/kg of the 1-C16:0 PAF was administered. The hypotensive response to PAF was inhibited by the test drug in a dose-related manner.
The PAF was administered in the form of a solution in physiological saline containing 0.25% w/v bovine serum albumin. The test drugs were dissolved in physiological saline containing either 0.25% w/v BSA or 20% v/v ethanol.
The 50% inhibitory dose (ID50) was calculated from the dose-response curve constructed for the inhibition of PAF-induced hypotension.
This test was carried out using compounds of the invention, as well as the prior art compound CV-3988, disclosed in U.S. Pat. No. 4,408,052 and represented by the foregoing formula (B).

[1] = system: PAF-induced platelet aggregation; experiment: Inhibition of PAF-induced platelet aggregation in vitro (platelet-rich plasma); type: cell-based; conditions: Oryctolagus cuniculus, 5 min, rabbit plasma, platelet count 6×10^5/μl, C16:0 PAF 1×10^-8-3×10^-8 M final
Method: Inhibition of PAF-induced platelet aggregation in vitro
Blood was drawn from a rabbit and immediately mixed with one nineth of its volume of a 3.8% w/v aqueous solution of sodium citrate. A platelet-rich plasma (PRP) was obtained as a supernatant by centrifugation of the blood at 150×g for 15 minutes at room temperature. The precipitated fraction was centrifuged for a further 15 minutes at 1000×g to obtain a platelet-poor plasma (PPP) as a supernatant. Appropriate proportions of this PRP and PPP were mixed to obtain a plasma having a platelet count of 6×10^5 /μl.
Platelet aggregation was determined by the method of Born et al. [G. V. R. Born et al., J. Physiol., 62, 67-68 (1962)] where an increase in light transmission is measured by the aggregometer.
25 μl of a saline solution containing the compound to be tested at an appropriate concentration was added to 250 μl of the above plasma. One minute thereafter. […] The aggregation resulting from the addition of PAF alone, without the prior addition of the test compound was taken as 100%.
The IC50 values (i.e. concentrations to inhibit aggregation by 50%) were calculated from dose-response curves and are shown in Table 6.

Structure (SMILES) | ED50 (PAF-induced hypotension) [mg/kg] | IC50 [1] [nM]
CCCCCCCCCCCCCCCCCNC(=O)OCC(COP(=O)([O-])OCC[n+]1ccsc1)Oc1ccon1 (racemic) [Example 13, (2RS)-3-(N-Heptadecylcarbamoyloxy)-2-(3-isoxazolyloxy)propyl 2-thiazolioethyl phosphate (inner salt)] | 0.096 | 3400
CCCCCCCCCCCCCCCCCNC(=O)OCC(COP(=O)([O-])OCC[n+]1ccsc1)Oc1cc(C)on1 (racemic) [Example 18, (2RS)-3-(N-Heptadecylcarbamoyloxy)-2-(5-methyl-3-isoxazolyloxy)propyl 2-thiazolioethyl phosphate (inner salt)] | 0.081 | 4800
CCCCCCCCCCCCCCCc1cc(OCC(COP(=O)([O-])OCCCCCC[n+]2ccsc2)Oc2cc(C)on2)no1 (racemic) [Example 23, (2RS)-3-(5-Pentadecyl-3-isoxazolyloxy)-2-(5-methyl-3-isoxazolyloxy)propyl 6-thiazoliohexyl phosphate (inner salt)] | 0.067 | 1400
CCCCCCCCCCCCCCCc1cc(OCC(COCCCCCCC[n+]2ccsc2)Oc2cc(C)on2)no1 (racemic) [Example 24, (2RS)-1-O-(5-Pentadecyl-3-isoxazolyl)-2-O-(5-methyl-3-isoxazolyl)-3-(7-thiazolioheptyl)glycerol methanesulfonate] | 0.03 | 310
CCCCCCCCCCCCCCCc1cc(OCC(COC(=O)NCCCCC[n+]2ccsc2)Oc2cc(C)on2)no1 (racemic) [Example 25, (2RS)-1-O-(5-Pentadecyl-3-isoxazolyl)-2-O-(5-methyl-3-isoxazolyl)-3-O-{N-(5-thiazoliopentyl)carbamoyl}glycerol bromide] | 0.055 | 270
CCCCCCCCCCCCCCCCCNC(=O)OCC(COC(=O)NCCCCC[n+]1ccsc1)Oc1cc(C)on1.[Br-] (racemic) [Example 33, 3-{5-[(2RS)-3-(N-Heptadecylcarbamoyloxy)-2-(5-methyl-3-isoxazolyloxy)propoxycarbonylamino]pentyl}thiazolium bromide] | 0.086 | 310
CCCCCCCCCCCCCCCCCNC(=O)OCC(COC(=O)N(Cc1cccc[n+]1CC)C(C)=O)Oc1ccon1 (racemic) [Example 38, 2-{N-Acetyl-N-[(2RS)-3-(N-Heptadecylcarbamoyloxy)-2-(3-isoxazolyloxy)propoxycarbonyl]aminomethyl}-1-ethylpyridinium chloride] | 0.004 | 81
CCCCCCCCCCCCCCCCc1cc(OC[C@H](COC(=O)N[C@H](CCCCC[n+]2ccsc2)C(=O)OCC)Oc2ccon2)no1.CS(=O)(=O)[O-] (racemic) [Example 41, 3-{(6RS)-6-Ethoxycarbonyl-6-[(2RS)-3-(5-hexadecyl-3-isoxazolyloxy)-2-(3-isoxazolyloxy)propoxy]carbonylaminohexyl}thiazolium methanesulfonate] | 0.054 | 350
CCCCCCCCCCCCCCCCCCNC(=O)OCC(COP(=O)([O-])OCC[n+]1ccsc1)OC (stereo not drawn) [CV-3988, reference compound] | 0.415 | 9800

Reference: patent US5068340A, “Isothiazolyl substituted glycerol derivatives containing phosphate groups” (priority 1986, dated 1991)
